Measurements reported in US12581252B2, “Substituted pyrrolo[3,4-b]pyridines as PI3K-α inhibitors” (Relay Therapeutics, Inc., priority 2020, dated 2026).

molecular target: H1047R PIK3CA enzyme (Homo sapiens, UniProt P42336, H1047R); assay: ADP-Glo Biochemical PIK3CA Kinase Assay
Sequence (P42336 whole entry H1047R): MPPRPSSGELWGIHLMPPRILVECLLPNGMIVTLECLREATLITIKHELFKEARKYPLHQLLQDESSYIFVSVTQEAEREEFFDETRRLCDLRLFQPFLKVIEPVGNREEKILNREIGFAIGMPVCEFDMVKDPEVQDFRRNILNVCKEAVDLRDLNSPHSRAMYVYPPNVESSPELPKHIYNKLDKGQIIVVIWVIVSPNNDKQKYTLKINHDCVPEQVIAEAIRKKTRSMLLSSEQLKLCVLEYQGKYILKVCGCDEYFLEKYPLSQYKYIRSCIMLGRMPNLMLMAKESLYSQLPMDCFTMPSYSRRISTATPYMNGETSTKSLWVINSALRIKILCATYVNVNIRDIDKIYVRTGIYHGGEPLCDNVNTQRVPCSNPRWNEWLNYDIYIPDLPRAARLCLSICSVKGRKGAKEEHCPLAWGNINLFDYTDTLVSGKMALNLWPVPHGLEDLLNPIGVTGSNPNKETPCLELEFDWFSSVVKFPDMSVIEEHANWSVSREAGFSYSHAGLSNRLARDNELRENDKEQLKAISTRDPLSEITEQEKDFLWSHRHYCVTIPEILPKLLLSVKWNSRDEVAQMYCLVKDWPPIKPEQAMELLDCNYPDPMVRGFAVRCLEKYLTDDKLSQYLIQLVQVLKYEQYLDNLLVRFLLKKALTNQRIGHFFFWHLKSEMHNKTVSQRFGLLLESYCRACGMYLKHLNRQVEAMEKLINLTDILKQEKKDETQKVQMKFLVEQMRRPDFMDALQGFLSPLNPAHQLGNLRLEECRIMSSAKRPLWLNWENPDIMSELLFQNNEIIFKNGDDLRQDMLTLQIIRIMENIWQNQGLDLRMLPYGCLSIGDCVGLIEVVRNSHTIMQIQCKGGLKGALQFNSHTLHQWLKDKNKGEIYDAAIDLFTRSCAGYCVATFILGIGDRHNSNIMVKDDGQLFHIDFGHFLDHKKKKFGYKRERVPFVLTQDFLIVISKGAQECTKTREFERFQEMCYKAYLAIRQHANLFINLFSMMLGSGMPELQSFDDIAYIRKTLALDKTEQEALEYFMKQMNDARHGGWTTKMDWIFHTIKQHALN
Sequence (P27986 whole entry partner): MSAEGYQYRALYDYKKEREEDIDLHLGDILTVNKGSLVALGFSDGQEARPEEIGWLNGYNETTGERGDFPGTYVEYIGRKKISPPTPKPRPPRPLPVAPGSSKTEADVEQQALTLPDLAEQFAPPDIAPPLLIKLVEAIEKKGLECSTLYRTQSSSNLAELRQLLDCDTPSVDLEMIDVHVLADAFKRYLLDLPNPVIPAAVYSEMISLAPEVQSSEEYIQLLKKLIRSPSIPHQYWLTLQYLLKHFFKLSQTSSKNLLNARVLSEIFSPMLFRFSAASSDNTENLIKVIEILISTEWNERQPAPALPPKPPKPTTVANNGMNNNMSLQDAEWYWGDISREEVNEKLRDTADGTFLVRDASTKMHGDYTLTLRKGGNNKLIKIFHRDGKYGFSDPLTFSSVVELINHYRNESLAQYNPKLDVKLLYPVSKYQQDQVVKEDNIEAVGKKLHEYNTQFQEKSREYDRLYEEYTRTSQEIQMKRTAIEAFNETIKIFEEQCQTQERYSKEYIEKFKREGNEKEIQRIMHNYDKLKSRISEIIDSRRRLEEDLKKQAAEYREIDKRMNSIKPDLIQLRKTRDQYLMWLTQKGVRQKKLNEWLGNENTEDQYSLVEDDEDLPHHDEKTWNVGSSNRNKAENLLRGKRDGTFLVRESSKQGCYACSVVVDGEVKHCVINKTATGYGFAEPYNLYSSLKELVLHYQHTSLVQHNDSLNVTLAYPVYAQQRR

Row | Compound | IC50
1 | O=C(Nc1ccc(F)cc1C(F)(F)F)Nc1cc(Br)cc2c1C(c1cc(F)ccc1Cl)NC2=O (centres unmarked) [Compound I-1050] | 100 to 500 nM
2 | O=C1N[C@@H](c2cc(F)ccc2Cl)c2c(NC(=O)N3C[C@H](O)c4cc(F)ccc43)cc(-c3ccc(=O)n(C(F)F)c3)cc21 (single isomer, unassigned) [Compound I-2450] | 1000 to 10000 nM
3 | N#CC1(COc2cc(NC(=O)N3C[C@H](O)c4cc(F)ccc43)c3c(c2)C(=O)N[C@@H]3c2cc(F)ccc2Cl)CC1 (single isomer, unassigned) [Compound I-2554] | 100 to 500 nM
4 | Cc1ccccc1C1NC(=O)c2cccc(NC(=O)c3cccc4c3CCCO4)c21 (centres unmarked) [Compound I-11] | 10000 to 100000 nM
5 | O=C(Nc1cc(N2CCn3cnnc3C2)cc2c1C(c1cc(F)ccc1Cl)NC2=O)c1cc(F)cc(C(F)(F)F)c1 (centres unmarked) [Compound I-1354] | ≤ 100 nM
6 | O=C1NC(c2cc(F)ccc2Cl)c2c(Nc3nccc4cccnc34)cc(Br)cc21 (centres unmarked) [Compound I-761] | 10000 to 100000 nM
7 | O=C(Cn1ncc2ccccc21)Nc1cc(Br)cc2c1C(c1cc(F)ccc1Cl)NC2=O (centres unmarked) [Compound I-633] | 10000 to 100000 nM
8 | O=C1NC(O)(c2cccc(F)c2F)c2c(NC(=O)c3csc4ccccc34)ccnc21 (centres unmarked) [Compound I-31] | 10000 to 100000 nM
9 | O=C1N[C@H](c2cc(F)ccc2Cl)c2c(NC(=O)c3csc4ccccc34)cc(-c3ccc4ncnn4c3)cc21 [Compound I-1685] | 1000 to 10000 nM
10 | O=C(Nc1cc(-c2ccc(=O)n(C3CC3)c2)nc2c1C(c1cc(F)ccc1Cl)NC2=O)c1cc(F)cc(C(F)(F)F)c1 (centres unmarked) [Compound I-647] | ≤ 100 nM
11 | N#Cc1cnc2cnc(-c3cc(NC(=O)c4cc(F)cc(C(F)(F)F)c4)c4c(c3)C(=O)N[C@H]4c3cc(F)ccc3Cl)cn12 [Compound I-1923] | ≤ 100 nM
12 | CS(=O)(=O)Cc1cc(NC(=O)c2cc(F)cc(Cl)c2)c2c(c1)C(=O)NC2c1cc(F)ccc1Cl (centres unmarked) [Compound I-231] | ≤ 100 nM
13 | Cc1ccccc1C(=O)Nc1cc(Br)cc2c1C(c1cc(F)ccc1Cl)NC2=O (centres unmarked) [Compound I-464] | 10000 to 100000 nM
14 | O=C(Nc1cc(-c2ccc3ncnn3c2)cc2c1[C@@H](c1cc(F)cc(F)c1Cl)NC2=O)c1cc(F)cc(C(F)(F)F)c1 (stereo in doubt) [Compound I-1063] | 10000 to 100000 nM
15 | O=C(Nc1cc(NC(=O)C2CC2)cc2c1C(c1cc(F)ccc1Cl)NC2=O)c1cc(F)cc(C(F)(F)F)c1 (centres unmarked) [Compound I-625] | ≤ 100 nM
16 | O=C1NC(c2cc(F)ccc2Cl)c2c(NC(=O)C3CCC(C(F)(F)F)CC3)cc(Br)cc21 (centres unmarked) [Compound I-1324] | 1000 to 10000 nM
17 | O=C1NC(c2cc(F)ccc2Cl)c2c(NC(=O)C3CCCN(CC(F)(F)F)C3)cc(-c3ccc4ncnn4c3)cc21 (single isomer, unassigned) [Compound I-1964] | 10000 to 100000 nM
18 | O=C(Nc1cc(Br)cc2c1C(c1cc(F)ccc1Cl)NC2=O)c1cc(F)cc2c1NCCC2 (centres unmarked) [Compound I-1385] | 500 to 1000 nM
19 | O=C1NCc2c(NC(=O)N3CCCCC3Cc3ccccc3)cccc21 (centres unmarked) [Compound I-990] | 10000 to 100000 nM
20 | Cc1ccccc1C1NC(=O)c2c(C(=O)O)ccc(NC(=O)c3nsc4ccccc34)c21 (centres unmarked) [Compound I-278] | 500 to 1000 nM

Row | Compound | IC50
21 | O=C1N[C@@H](c2cc(F)ccc2Cl)c2c(NC(=O)[C@H]3CCCCN3)cc(-c3ccc4ncnn4c3)cc21 [Compound I-2147] | 10000 to 100000 nM
22 | CC(=O)N1CCC(C(=O)Nc2cc(-c3ccc4ncnn4c3)cc3c2C(c2cc(F)ccc2Cl)NC3=O)CC1 (centres unmarked) [Compound I-1744] | 10000 to 100000 nM
23 | N#C[C@H]1C[C@H](c2cc(NC(=O)c3cc(F)cc(C(F)(F)F)c3)c3c(c2)C(=O)N[C@@H]3c2cc(F)ccc2Cl)C1 (single isomer, unassigned) [Compound I-1325] | 100 to 500 nM
24 | COc1cc(C(=O)Nc2cc(Br)cc3c2C(c2cc(F)ccc2Cl)NC3=O)cc(Cl)c1F (centres unmarked) [Compound I-991] | 100 to 500 nM
25 | O=C1N[C@H](c2cc(F)ccc2Cl)c2c(NC(=O)N3C[C@@H](O)c4cc(F)ccc43)cc(-c3ccc(=O)n(C(F)F)c3)cc21 (single isomer, unassigned) [Compound I-2449] | 100 to 500 nM
26 | O=C1N[C@@H](c2cc(F)ccc2Cl)c2c(NC(=O)N3C[C@@](O)(C(F)(F)F)c4cc(F)ccc43)ccc(Cl)c21 (single isomer, unassigned) [Compound I-2621] | 500 to 1000 nM
27 | O=C(Nc1cc(Br)cc2c1C(c1cc(F)ccc1Cl)NC2=O)c1cc(F)cc(CC2CCC2)c1 (centres unmarked) [Compound I-1350] | 1000 to 10000 nM
28 | O=C1N[C@@H](c2cc(F)ccc2Cl)c2c(NC(=O)N3C[C@](O)(C(F)(F)F)c4ccccc43)cc(Cl)cc21 (single isomer, unassigned) [Compound I-2507] | 1000 to 10000 nM
29 | O=C(Nc1cc(-c2ccc(=O)n(C3CC3)c2)nc2c1[C@@H](c1cc(F)ccc1Cl)NC2=O)c1cc(F)cc(C(F)(F)F)c1 [Compound I-746] | 1000 to 10000 nM
30 | CN1CCN(c2cc(-c3ccc4ncnn4c3)cc3c2C(c2cc(F)ccc2Cl)NC3=O)CC1 (centres unmarked) [Compound I-1952] | 10000 to 100000 nM
31 | Cc1ccccc1C1NC(=O)c2cc(-c3cnn(C)c3)cc(NC(=O)c3csc4ccccc34)c21 (centres unmarked) [Compound I-115, N-[6-(1-methyl-1H-pyrazol-4-yl)-3-(2-methylphenyl)-1-oxo-2,3-dihydro-1H-isoindol-4-yl]-1-benzothiophene-3-carboxamide] | ≤ 100 nM
32 | CC(=O)N1CC(c2cc(NC(=O)c3cc(F)cc(C(F)(F)F)c3)c3c(c2)C(=O)NC3c2cc(F)ccc2Cl)C1 (centres unmarked) [Compound I-655] | ≤ 100 nM
33 | O=C(Nc1cc(Br)cc2c1C(c1cc(F)ccc1Cl)NC2=O)c1cc(F)c(F)c(Cl)c1 (centres unmarked) [Compound I-564] | ≤ 100 nM
34 | O=C(Nc1cc(-c2cn3ncnc3cn2)cc2c1[C@@H](c1cc(F)ccc1C(F)F)NC2=O)c1cc(F)cc(Cl)c1 (single isomer, unassigned) [Compound I-2258] | 1000 to 10000 nM
35 | O=C(Nc1cc(Br)cc2c1C(c1cc(F)ccc1Cl)NC2=O)c1cc(F)cc(Cl)c1O (centres unmarked) [Compound I-845] | 500 to 1000 nM
36 | O=C1N[C@H](c2cc(F)ccc2Cl)c2c(NC(=O)[C@@H]3CCC[C@H](OC(F)(F)F)C3)cccc21 (single isomer, unassigned) [Compound I-2213] | 10000 to 100000 nM
37 | O=C(Nc1cc(C#CC2(O)COC2)cc2c1C(c1cc(F)ccc1Cl)NC2=O)c1cc(F)cc(C(F)(F)F)c1 (centres unmarked) [Compound I-1154] | ≤ 100 nM
38 | COC1CCCC(C(=O)Nc2cc(-c3ccc4ncnn4c3)cc3c2C(c2cc(F)ccc2Cl)NC3=O)C1 (mixture of isomers) [Compound I-2037] | 10000 to 100000 nM
39 | Cc1ccc(C(=O)Nc2cc(-c3ccc4ncnn4c3)cc3c2[C@@H](c2cc(F)ccc2Cl)NC3=O)cc1C(F)(F)F (stereo in doubt) [Compound I-1168] | 10000 to 100000 nM
40 | O=C(Nc1cc(Br)cc2c1C(c1cc(F)ccc1Cl)NC2=O)c1cc(F)cc(F)c1 (centres unmarked) [Compound I-468] | 100 to 500 nM

Further lines, results first:

Row | IC50 | Compound
41 | ≤ 100 nM | O=C(Nc1cc(-n2ccc3ncccc3c2=O)cc2c1C(c1cc(F)ccc1Cl)NC2=O)c1cc(F)cc(C(F)(F)F)c1 (centres unmarked) [Compound I-1250]
42 | ≤ 100 nM | O=C(Nc1cc(-c2ncc[nH]2)cc2c1C(c1cc(F)ccc1Cl)NC2=O)c1cc(F)cc(C(F)(F)F)c1 (centres unmarked) [Compound I-712]
43 | 1000 to 10000 nM | O=C(Nc1cccc2c1C(c1cc(-c3ccccc3)ccc1Cl)NC2=O)c1cc(F)cc(C(F)(F)F)c1 (centres unmarked) [Compound I-486]
44 | 100 to 500 nM | O=C(Nc1cc(Br)cc2c1[C@H](c1cccc(F)c1F)NC2=O)c1cc(F)cc(C(F)(F)F)c1 [Compound I-682]
45 | 10000 to 100000 nM | N#Cc1cccc(C2NC(=O)c3cccc(NC(=O)c4cc(F)cc(C(F)(F)F)c4)c32)c1 (centres unmarked) [Compound I-659]
46 | 100 to 500 nM | NC(=O)c1cnccc1-c1cc(NC(=O)c2cc(F)cc(C(F)(F)F)c2)c2c(c1)C(=O)NC2c1cc(F)ccc1Cl (centres unmarked) [Compound I-1215]
47 | ≤ 100 nM | CC(=O)COc1cc(NC(=O)c2cc(F)cc(C(F)(F)F)c2)c2c(c1)C(=O)NC2c1cc(F)ccc1Cl (centres unmarked) [Compound I-708]
48 | 1000 to 10000 nM | Cn1nccc1-c1cc(NC(=O)c2cc(F)cc(C(F)(F)F)c2)c2c(c1)C(=O)N[C@@H]2c1cc(F)ccc1Cl [Compound I-1137]
49 | ≤ 100 nM | O=C(Nc1cc(-c2cncc(F)c2)nc2c1C(c1cc(F)ccc1Cl)NC2=O)c1cc(F)cc(C(F)(F)F)c1 (centres unmarked) [Compound I-585]
50 | ≤ 100 nM | N#Cc1cnc2ccc(-c3cc(NC(=O)c4cc(F)cc(C(F)(F)F)c4)c4c(c3)C(=O)NC4c3cc(F)ccc3Cl)cc2c1 (centres unmarked) [Compound I-1603]
51 | ≤ 100 nM | O=C(Nc1cc(Nc2ccno2)cc2c1C(c1cc(F)ccc1Cl)NC2=O)c1cc(F)cc(C(F)(F)F)c1 (centres unmarked) [Compound I-1115]
52 | ≤ 100 nM | O=C(Nc1cc(CS(=O)(=O)c2cccnc2)cc2c1C(c1cc(F)ccc1Cl)NC2=O)c1cc(F)cc(C(F)(F)F)c1 (centres unmarked) [Compound I-1536]
53 | 10000 to 100000 nM | O=C(Nc1cccc2c1C(C1CC1)NC2=O)c1cc(F)cc(C(F)(F)F)c1 (centres unmarked) [Compound I-259]
54 | 100 to 500 nM | O=C(Nc1cccc2c1C(c1ccccc1C1CC1)NC2=O)c1cc(F)cc(C(F)(F)F)c1 (centres unmarked) [Compound I-925]
55 | 1000 to 10000 nM | O=C(Nc1cc(Br)cc2c1[C@@H](c1ccc(F)cc1Cl)NC2=O)c1cc(F)cc(C(F)(F)F)c1 [Compound I-754]
56 | ≤ 100 nM | Cn1ccc(-c2cc(NC(=O)c3cc(F)cc(C(F)(F)F)c3)c3c(c2)C(=O)NC3c2cc(F)ccc2Cl)cc1=O (centres unmarked) [Compound I-889]
57 | ≤ 100 nM | N#CC1CN(c2cc(NC(=O)c3cc(F)cc(C(F)(F)F)c3)c3c(c2)C(=O)NC3c2cc(F)ccc2Cl)C1 (centres unmarked) [Compound I-723]
58 | 100 to 500 nM | Cc1ccccc1C1NC(=O)c2c(Br)ccc(NC(=O)c3cc(F)cc(C(F)(F)F)c3)c21 (centres unmarked) [Compound I-279]
59 | ≤ 100 nM | Cc1ncccc1-c1cc(NC(=O)c2cc(F)cc(C(F)(F)F)c2)c2c(c1)C(=O)NC2c1cc(F)ccc1Cl (centres unmarked) [Compound I-1152]
60 | ≤ 100 nM | O=C(Nc1cc(-c2ccnc(C(F)F)c2)cc2c1C(c1cc(F)ccc1Cl)NC2=O)c1cc(F)cc(C(F)(F)F)c1 (centres unmarked) [Compound I-1933]
61 | 10000 to 100000 nM | O=C(Nc1cccc2c1C(c1ccc3cn[nH]c3c1)NC2=O)c1cc(F)cc(C(F)(F)F)c1 (centres unmarked) [Compound I-844]
62 | 500 to 1000 nM | Cn1cc(-c2cc(NC(=O)c3cc(F)cc(C(F)(F)F)c3)c3c(c2)C(=O)N[C@@H]3c2cc(F)ccc2Cl)ccc1=O (single isomer, unassigned) [Compound I-701]
